Data: article PMC7500870 (Biochemistry, 2020)

Molecular target: Cj1427 (Campylobacter jejuni, UniProt Q0P8I7)
Test: stopped-flow NADH fluorescence, single turnover, global fit by simulation
Type: binding

Cj1427, sequence (Q0P8I7 whole entry): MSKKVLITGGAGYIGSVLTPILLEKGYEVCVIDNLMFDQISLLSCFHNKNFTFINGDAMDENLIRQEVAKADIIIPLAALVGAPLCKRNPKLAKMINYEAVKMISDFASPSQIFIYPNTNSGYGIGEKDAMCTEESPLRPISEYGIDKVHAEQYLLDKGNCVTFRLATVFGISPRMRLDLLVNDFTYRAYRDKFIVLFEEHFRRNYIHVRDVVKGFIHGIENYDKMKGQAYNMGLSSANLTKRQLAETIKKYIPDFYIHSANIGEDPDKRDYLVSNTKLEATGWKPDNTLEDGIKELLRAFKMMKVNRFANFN

O=C(O)CCC(=O)C(=O)O [α-ketoglutarate] was tested, and the Kd was 165 µM.
